From ChEMBL document CHEMBL1201862, “PubChem BioAssay data set” (2004)
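Compound exposure: 48 hours, 5 concentrations, 96-well plates. GI50 = concentration required for 50% inhibition of growth.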 Calls of active or inactive are those of the source. Rule as the data show it: active = GI50 up to about 1.1 µM and inactive = higher.

Experiments:
Assay in all cases: NCI-60 cell line screen, 48 h
A498 = test system: A498
A549 = test system: A549
EKVX = test system: EKVX
HCC 2998 = test system: HCC 2998
HCT-116 = test system: HCT-116
KM12 = test system: KM12
LOX IMVI = test system: LOX IMVI
MOLT-4 = test system: MOLT-4
NCI-H23 = test system: NCI-H23
NCI-H460 = test system: NCI-H460
OVCAR-3 = test system: OVCAR-3
OVCAR-5 = test system: OVCAR-5
SF-268 = test system: SF-268
SF-295 = test system: SF-295
SF-539 = test system: SF-539
SK-MEL-2 = test system: SK-MEL-2
SNB-19 = test system: SNB-19
U-251 = test system: U-251
UACC-62 = test system: UACC-62
UO-31 = test system: UO-31

COc1cc2c(cc1Oc1ccc(OC)c3c1CC1c4c(cc(OC)c(OC)c4-3)CCN1C)CC1c3c(cc(OC)c(OC)c3-2)CCN1C (stereo not drawn)
GI50 (A498): 2.77 µM (inactive) | GI50 (A549): 11.9 µM (inactive) | GI50 (EKVX): 3.18 µM (inactive) | GI50 (HCC 2998): 2.41 µM (inactive) | GI50 (HCT-116): 1.77 µM (inactive) | GI50 (KM12): 2.35 µM (inactive) | GI50 (LOX IMVI): 0.234 µM (active) | GI50 (MOLT-4): 1.25 µM (inactive) | GI50 (NCI-H23): 10.7 µM (inactive) | GI50 (NCI-H460): 1.7 µM (inactive) | GI50 (OVCAR-3): 4.95 µM (inactive) | GI50 (OVCAR-5): 6.05 µM (inactive) | GI50 (SF-268): 2.33 µM (inactive) | GI50 (SF-295): 2.54 µM (inactive) | GI50 (SF-539): 1.72 µM (inactive) | GI50 (SK-MEL-2): 1.74 µM (inactive) | GI50 (SNB-19): 5.69 µM (inactive) | GI50 (U-251): 1.79 µM (inactive) | GI50 (UACC-62): 1.97 µM (inactive) | GI50 (UO-31): 3.88 µM (inactive)

COc1cc(Cc2ccc3c(c2C#N)N(C)c2ccccc2S3)cc(OC)c1OC
GI50 (A498): 21.8 µM (inactive) | GI50 (A549): 9.4 µM (inactive) | GI50 (EKVX): 40.8 µM (inactive) | GI50 (HCT-116): 13.9 µM (inactive) | GI50 (KM12): > 100 µM (inactive) | GI50 (LOX IMVI): 8.15 µM (inactive) | GI50 (MOLT-4): 13.7 µM (inactive) | GI50 (NCI-H23): 4.14 µM (inactive) | GI50 (NCI-H460): 52.2 µM (inactive) | GI50 (OVCAR-3): 18.7 µM (inactive) | GI50 (OVCAR-5): > 100 µM (inactive) | GI50 (SF-268): > 100 µM (inactive) | GI50 (SF-295): 7.53 µM (inactive) | GI50 (SF-539): 17.8 µM (inactive) | GI50 (SK-MEL-2): > 100 µM (inactive) | GI50 (SNB-19): 53.5 µM (inactive) | GI50 (U-251): 27.2 µM (inactive) | GI50 (UO-31): 30.9 µM (inactive)

O=C1c2ccccc2OCC12OC21C=CC(Cl)=CC1 (stereo not drawn)
GI50 (A498): 20.7 µM (inactive) | GI50 (A549): 18.6 µM (inactive) | GI50 (EKVX): 18.7 µM (inactive) | GI50 (HCC 2998): 19.1 µM (inactive) | GI50 (HCT-116): 18.9 µM (inactive) | GI50 (KM12): 17.6 µM (inactive) | GI50 (LOX IMVI): 13.5 µM (inactive) | GI50 (MOLT-4): 0.113 µM (active) | GI50 (NCI-H23): 16 µM (inactive) | GI50 (NCI-H460): 20.3 µM (inactive) | GI50 (OVCAR-3): 20.5 µM (inactive) | GI50 (OVCAR-5): 31.8 µM (inactive) | GI50 (SF-268): 35.5 µM (inactive) | GI50 (SF-539): 52.4 µM (inactive) | GI50 (SK-MEL-2): 21.7 µM (inactive) | GI50 (SNB-19): 29.8 µM (inactive) | GI50 (U-251): 17.3 µM (inactive) | GI50 (UACC-62): 27.3 µM (inactive) | GI50 (UO-31): 29.6 µM (inactive)

CS(=O)(=O)C(C#N)c1nc2ccccc2nc1Cl (stereo not drawn)
GI50 (A498): > 28.1 µM (inactive) | GI50 (A549): > 100 µM (inactive) | GI50 (EKVX): > 100 µM (inactive) | GI50 (HCC 2998): > 32.2 µM (inactive) | GI50 (HCT-116): > 100 µM (inactive) | GI50 (KM12): > 34.4 µM (inactive) | GI50 (LOX IMVI): > 100 µM (inactive) | GI50 (MOLT-4): > 100 µM (inactive) | GI50 (NCI-H23): > 100 µM (inactive) | GI50 (NCI-H460): > 30.5 µM (inactive) | GI50 (OVCAR-3): > 72.1 µM (inactive) | GI50 (OVCAR-5): > 39.9 µM (inactive) | GI50 (SF-268): > 74 µM (inactive) | GI50 (SF-295): > 100 µM (inactive) | GI50 (SF-539): > 28.5 µM (inactive) | GI50 (SK-MEL-2): > 22.4 µM (inactive) | GI50 (SNB-19): > 100 µM (inactive) | GI50 (U-251): > 100 µM (inactive) | GI50 (UACC-62): > 100 µM (inactive) | GI50 (UO-31): > 100 µM (inactive)

Cc1cc(NS(=O)(=O)c2ccc(NC(=O)c3cccc4c(Nc5ccc(S(N)(=O)=O)cc5)c5ccccc5nc34)cc2)no1
GI50 (A498): > 100 µM (inactive) | GI50 (EKVX): 96.8 µM (inactive) | GI50 (HCC 2998): > 100 µM (inactive) | GI50 (HCT-116): > 100 µM (inactive) | GI50 (KM12): 57 µM (inactive) | GI50 (LOX IMVI): 70.3 µM (inactive) | GI50 (MOLT-4): > 100 µM (inactive) | GI50 (NCI-H23): > 100 µM (inactive) | GI50 (NCI-H460): > 100 µM (inactive) | GI50 (OVCAR-3): 76.2 µM (inactive) | GI50 (OVCAR-5): > 100 µM (inactive) | GI50 (SF-268): > 100 µM (inactive) | GI50 (SF-539): 73.6 µM (inactive) | GI50 (SK-MEL-2): > 100 µM (inactive) | GI50 (SNB-19): 97.3 µM (inactive) | GI50 (U-251): 87.7 µM (inactive) | GI50 (UACC-62): > 100 µM (inactive) | GI50 (UO-31): 35.6 µM (inactive)

CC(=C/c1ccccc1)/C=C1/NC(=S)N(/C=C2\C(=O)Oc3ccccc3C2=O)C1=O
GI50 (A498): 56.4 µM (inactive) | GI50 (A549): 42.2 µM (inactive) | GI50 (EKVX): 27.9 µM (inactive) | GI50 (HCC 2998): 58.1 µM (inactive) | GI50 (HCT-116): 41.9 µM (inactive) | GI50 (KM12): 27.5 µM (inactive) | GI50 (LOX IMVI): 53.5 µM (inactive) | GI50 (MOLT-4): 38.1 µM (inactive) | GI50 (NCI-H23): 41.6 µM (inactive) | GI50 (NCI-H460): 30.5 µM (inactive) | GI50 (OVCAR-3): 38.3 µM (inactive) | GI50 (OVCAR-5): > 100 µM (inactive) | GI50 (SF-268): 53.6 µM (inactive) | GI50 (SF-295): > 100 µM (inactive) | GI50 (SF-539): 96.6 µM (inactive) | GI50 (SK-MEL-2): > 100 µM (inactive) | GI50 (SNB-19): 65.6 µM (inactive) | GI50 (U-251): 41.3 µM (inactive)

CC(=O)ON1C(=O)c2cccc3cccc(c23)C1=O
GI50 (A498): 25.8 µM (inactive) | GI50 (A549): 23.2 µM (inactive) | GI50 (EKVX): 28.1 µM (inactive) | GI50 (HCC 2998): 31.6 µM (inactive) | GI50 (HCT-116): 6.93 µM (inactive) | GI50 (KM12): 14.6 µM (inactive) | GI50 (LOX IMVI): 14.2 µM (inactive) | GI50 (MOLT-4): 15.6 µM (inactive) | GI50 (NCI-H23): 10.4 µM (inactive) | GI50 (NCI-H460): 7.93 µM (inactive) | GI50 (OVCAR-3): 19.5 µM (inactive) | GI50 (OVCAR-5): 35.1 µM (inactive) | GI50 (SF-268): 22.6 µM (inactive) | GI50 (SF-295): 20.9 µM (inactive) | GI50 (SF-539): 16.4 µM (inactive) | GI50 (SK-MEL-2): 18.3 µM (inactive) | GI50 (SNB-19): 36.8 µM (inactive) | GI50 (U-251): 14.8 µM (inactive) | GI50 (UACC-62): 19.9 µM (inactive) | GI50 (UO-31): 6.27 µM (inactive)

NC(=O)Oc1ccccc1 [CARBAMIC ACID PHENYL ESTER]
GI50 (A498): > 100 µM (inactive) | GI50 (A549): > 100 µM (inactive) | GI50 (HCC 2998): > 100 µM (inactive) | GI50 (HCT-116): > 100 µM (inactive) | GI50 (KM12): > 100 µM (inactive) | GI50 (LOX IMVI): > 100 µM (inactive) | GI50 (MOLT-4): > 100 µM (inactive) | GI50 (NCI-H23): > 100 µM (inactive) | GI50 (NCI-H460): > 100 µM (inactive) | GI50 (OVCAR-3): > 100 µM (inactive) | GI50 (SF-268): > 100 µM (inactive) | GI50 (SF-295): > 100 µM (inactive) | GI50 (SNB-19): > 100 µM (inactive) | GI50 (U-251): > 100 µM (inactive) | GI50 (UO-31): > 100 µM (inactive)
